From US7833685B2, “Coloring compound and yellow toner containing the coloring compound” (Canon Kabushiki Kaisha, priority 2006, dated 2010)

Assays:
[1] = Evaluation of coloring compound for lightfastness (sun tester irradiation, color difference ΔE); type: physicochemical; conditions: ΔE after sun tester irradiation, 765 w/m^2, 50° C., 20 hours, on CLC color copy paper
Description: <Evaluation of Coloring Compound for Lightfastness>
A coloring compound was dissolved in a mixed liquid prepared by mixing tetrahydrofuran and cyclohexanone at a volume ratio of 1:1, whereby a 0.04-mol/l coloring compound solution was prepared. The coloring compound solution was filtrated through a filter (pore diameter: 0.2 μm). The coloring compound solution after the filtration was applied to CLC color copy paper (manufactured by Canon Inc.) by a bar coat method (Bar No. 3), and the resultant test paper was dried with air for one whole day and night. Next, the test paper was tested by being irradiated with light from a sun tester (XF-180CPS, manufactured by Shimadzu Corporation) at an illuminance of 765 w/m^2 and a temperature of 50° C. for an irradiation time of 20 hours. The test paper was analyzed with a spectrophotometer (SPECTROLINO, manufactured by Gretag Macbeth) before and after the irradiation test. The chromaticities (L*, a*, b*) of the test paper in an L*a*b* colorimetric system were measured before and after the irradiation test. A color difference (ΔE) was calculated from the following equation.
The coloring compound was evaluated for its lightfastness as described below. • A: ΔE is less than 15. • B: ΔE is 15 or more and less than 30. • C: ΔE is 30 or more.
The coloring compound was judged to have good lightfastness when ΔE was less than 30.

[2] = Evaluation of coloring compound for its solubility in a styrene monomer; type: physicochemical; conditions: in a styrene monomer at 25° C.
Description: <Evaluation of Coloring Compound for its Solubility>
A coloring compound was tested for its solubility in a styrene monomer at a temperature of 25° C. of dissolution.
The coloring compound was judged to have sufficient solubility when the percentage by which the coloring compound dissolved in the styrene monomer was 1 mass % or more.

| Compound | Lightfastness [1] | Solubility [2] |
| --- | --- | --- |
| CCCCCCCCCCCCN(CCCCCCCCCCCC)C(=O)c1cc(Cl)ccc1N=Nc1c(O)[nH]c(=O)c(C#N)c1C [D5] | B (ΔE is 15 or more and less than 30) | A (The percentage by which the coloring compound dissolves in the styrene monomer is 10 mass % or more) |
| CCCCc1c(N=Nc2ccccc2C(=O)N2CCC(CCC)CC2)c(O)[nH]c(=O)c1C#N [D16] | A (ΔE is less than 15) | B (The percentage by which the coloring compound dissolves in the styrene monomer is 1 mass % or more and less than 10 mass %) |
| CCCCCCCCCCCCN(CCCCCCCCCCCC)C(=O)c1ccccc1N=Nc1c(O)[nH]c(=O)c(C#N)c1C [D4] | A (ΔE is less than 15) | A (The percentage by which the coloring compound dissolves in the styrene monomer is 10 mass % or more) |
| CCCCC(CC)CN(CC(CC)CCCC)C(=O)c1ccccc1N=Nc1c(C)cc(=O)[nH]c1O (centres unmarked) [D7] | B (ΔE is 15 or more and less than 30) | B (The percentage by which the coloring compound dissolves in the styrene monomer is 1 mass % or more and less than 10 mass %) |
| Cc1c(N=Nc2ccccc2C(=O)N(Cc2ccccc2)Cc2ccccc2)c(O)[nH]c(=O)c1C#N [D11] | A (ΔE is less than 15) | B (The percentage by which the coloring compound dissolves in the styrene monomer is 1 mass % or more and less than 10 mass %) |
| CCCCC(CC)CN(CC(CC)CCCC)C(=O)c1ccccc1/N=N/c1c(O)[nH]c(=O)c(C#N)c1C (centres unmarked) [D1] | A (ΔE is less than 15) | A (The percentage by which the coloring compound dissolves in the styrene monomer is 10 mass % or more) |
| CCCCc1c(N=Nc2ccc(OC)cc2C(=O)OC(c2ccccc2)c2ccccc2)c(O)[nH]c(=O)c1C#N [D10] | B (ΔE is 15 or more and less than 30) | B (The percentage by which the coloring compound dissolves in the styrene monomer is 1 mass % or more and less than 10 mass %) |
| CCCCCCCCc1ccc(OC(=O)c2ccccc2N=Nc2c(O)[nH]c(=O)c(C#N)c2C)cc1 [D8] | A (ΔE is less than 15) | B (The percentage by which the coloring compound dissolves in the styrene monomer is 1 mass % or more and less than 10 mass %) |
| CCCCC(CC)CN(CC(CC)CCCC)C(=O)c1ccccc1N=Nc1c(O)[nH]c(=O)c(C(N)=O)c1C (centres unmarked) [D14] | B (ΔE is 15 or more and less than 30) | B (The percentage by which the coloring compound dissolves in the styrene monomer is 1 mass % or more and less than 10 mass %) |
| CCCCCCN(CCCCCC)C(=O)c1ccccc1N=Nc1c(O)[nH]c(=O)c(C#N)c1C [D3] | A (ΔE is less than 15) | A (The percentage by which the coloring compound dissolves in the styrene monomer is 10 mass % or more) |
| CCCCC(CC)CN(CC(CC)CCCC)C(=O)c1ccccc1N=Nc1c(O)[nH]c(=O)c(C#N)c1-c1ccccc1 (centres unmarked) [D2] | A (ΔE is less than 15) | A (The percentage by which the coloring compound dissolves in the styrene monomer is 10 mass % or more) |
| CCCCc1c(N=Nc2ccc(C)cc2C(=O)OCC(CC)CCCC)c(O)[nH]c(=O)c1C#N (centres unmarked) [D6] | B (ΔE is 15 or more and less than 30) | B (The percentage by which the coloring compound dissolves in the styrene monomer is 1 mass % or more and less than 10 mass %) |
| Cc1c(N=Nc2ccccc2C(=O)N(c2ccccc2)c2ccccc2)c(O)[nH]c(=O)c1C#N [D12] | A (ΔE is less than 15) | B (The percentage by which the coloring compound dissolves in the styrene monomer is 1 mass % or more and less than 10 mass %) |
| CCCCc1c(N=Nc2ccccc2C(=O)NCC(CC)CCCC)c(O)[nH]c(=O)c1C#N (centres unmarked) [D15] | A (ΔE is less than 15) | B (The percentage by which the coloring compound dissolves in the styrene monomer is 1 mass % or more and less than 10 mass %) |

The next lines start with results.

| Lightfastness [1] | Compound | Solubility [2] |
| --- | --- | --- |
| C (ΔE is 30 or more) | CCCCC(CC)CN(CC(CC)CCCC)C(=O)c1ccc(N=Nc2c(O)[nH]c(=O)c(C#N)c2C)cc1 (centres unmarked) [E10, reference compound] | A (The percentage by which the coloring compound dissolves in the styrene monomer is 10 mass % or more) |
| C (ΔE is 30 or more) | CCCCn1c(O)c(N=Nc2ccc(C(=O)OC)cc2)c(C)c(C#N)c1=O [E5, reference compound] | C (The percentage by which the coloring compound dissolves in the styrene monomer is less than 1 mass %) |
| C (ΔE is 30 or more) | CCCCC(CC)CNS(=O)(=O)c1ccc(N=Nc2c(C)c(C#N)c(=O)n(CCCC)c2O)cc1 (centres unmarked) [E3, reference compound] | A (The percentage by which the coloring compound dissolves in the styrene monomer is 10 mass % or more) |
| C (ΔE is 30 or more) | CCCCn1c(O)c(N=Nc2ccccc2[N+](=O)[O-])c(C)c(C#N)c1=O [E8, reference compound] | C (The percentage by which the coloring compound dissolves in the styrene monomer is less than 1 mass %) |
| C (ΔE is 30 or more) | CCCCC(CC)CN(CC(CC)CCCC)C(=O)c1ccccc1N=Nc1c(C)c(C#N)c(=O)n(CC)c1O (centres unmarked) [E11, reference compound] | A (The percentage by which the coloring compound dissolves in the styrene monomer is 10 mass % or more) |
| C (ΔE is 30 or more) | CCCCc1ccc(N=Nc2c(O)[nH]c(=O)c(C#N)c2C)cc1 [E1, reference compound] | B (The percentage by which the coloring compound dissolves in the styrene monomer is 1 mass % or more and less than 10 mass %) |
| A (ΔE is less than 15) | CCCCC(CC)CN(CC(CC)CCCC)C(=O)c1cccc(N=Nc2c(O)[nH]c(=O)c(C#N)c2C)c1 (centres unmarked) [E9, reference compound] | C (The percentage by which the coloring compound dissolves in the styrene monomer is less than 1 mass %) |
| C (ΔE is 30 or more) | CCCCC(CC)CN(CC(CC)CCCC)C(=O)c1ccc(N=Nc2c(C)c(C#N)c(=O)n(CC)c2O)cc1 (centres unmarked) [E6, reference compound] | A (The percentage by which the coloring compound dissolves in the styrene monomer is 10 mass % or more) |
| C (ΔE is 30 or more) | CCCCn1c(O)c(N=Nc2cccc(C)c2)c(C)c(C#N)c1=O [E7, reference compound] | B (The percentage by which the coloring compound dissolves in the styrene monomer is 1 mass % or more and less than 10 mass %) |
| C (ΔE is 30 or more) | CCCCn1c(O)c(N=Nc2ccc(Cl)cc2)c(C)c(C#N)c1=O [E2, reference compound] | B (The percentage by which the coloring compound dissolves in the styrene monomer is 1 mass % or more and less than 10 mass %) |
| C (ΔE is 30 or more) | Cc1c(N=Nc2ccc(N(C)C)cc2)c(O)n(CCCl)c(=O)c1C#N [E4, reference compound] | B (The percentage by which the coloring compound dissolves in the styrene monomer is 1 mass % or more and less than 10 mass %) |
